Laboratory results published in PMC9813676 (Current Research in Food Science, 2022).

Legend:
[1] = biological target: T1, porcine pancreatic lipase (Sus scrofa, UniProt P00591); assay: Fluorescence titration of lipase; format: binding; conditions: for n (number of binding sites) / binding affinity with lipase (in words): fluorescence titration; for n (number of binding sites): excitation 280 nm, Tris-HCl pH 8.0
T1 sequence (P00591 1-450): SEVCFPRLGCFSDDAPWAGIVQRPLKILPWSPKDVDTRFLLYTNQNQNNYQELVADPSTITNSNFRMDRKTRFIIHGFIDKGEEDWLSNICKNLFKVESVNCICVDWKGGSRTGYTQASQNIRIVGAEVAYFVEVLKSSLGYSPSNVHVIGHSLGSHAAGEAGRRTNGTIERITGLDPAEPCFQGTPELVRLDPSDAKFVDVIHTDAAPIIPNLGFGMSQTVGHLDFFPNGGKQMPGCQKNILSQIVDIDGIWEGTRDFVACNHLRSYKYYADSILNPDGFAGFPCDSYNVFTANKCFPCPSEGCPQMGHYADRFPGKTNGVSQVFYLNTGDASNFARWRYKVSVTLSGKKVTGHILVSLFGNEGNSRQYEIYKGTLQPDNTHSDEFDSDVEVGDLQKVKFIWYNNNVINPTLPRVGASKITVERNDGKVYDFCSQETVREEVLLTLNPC

[2] = biological target: T1, porcine pancreatic lipase; assay: Inhibitory activity on pancreatic lipase; conditions: IC50, pNPP substrate, Tris-HCl pH 8.0, 37 °C, means ± SD of triplicate
[3] = ref Zhi et al., 1999; cited from earlier work
[4] = tested on: pancreatic lipase; conditions: ref Kumar and Alagawadi, 2013; cited from earlier work
[5] = rats, cited from earlier work
[6] = oral administration, ref Zhou et al., 2021

Structure (SMILES)	Kd [1] [µM]	n (number of binding sites) [1]	IC50 [2] [µM]	further results
O=c1cc(-c2ccc(O)c(O)c2)oc2cc(O)c([C@@H]3O[C@H](CO)[C@@H](O)[C@H](O)[C@H]3O)c(O)c12 [Isoorientin]	4.66	1.278	–	–
O=c1c(-c2ccc(O)cc2)coc2cc(O[C@@H]3O[C@H](CO)[C@@H](O)[C@H](O)[C@H]3O)cc(O)c12 [Genistin]	10.8	1.086	> 925	–
O=c1cc(-c2ccc(O)cc2)oc2cc(O)cc(O)c12 [Apigenin]	3.86	1.156	256 ± 54	–
O=c1c(-c2ccc(O)cc2)coc2cc(O[C@@H]3O[C@H](CO)[C@@H](O)[C@H](O)[C@H]3O)ccc12 [Daidzin]	141	0.877	> 1150	–
Oc1cc(O)c2c(c1)O[C@H](c1cc(O)c(O)c(O)c1)[C@H](O)C2 [Epigallocatechin]	5820	0.670	> 49000	binding affinity with lipase (in words) [1]: very weak binding affinity
CCCCCCCCCCC[C@@H](C[C@@H]1OC(=O)[C@H]1CCCCCC)OC(=O)[C@H](CC(C)C)NC=O [Orlistat]	–	–	–	absorption in circulatory blood [3]: poorly absorbed
O=C1c2c(O)cc(O)cc2OC(c2ccc(O)c(O)c2)C1O (stereo not shown) [Taxifolin]	56.2	0.956	3870 ± 939	–
COc1ccc([C@@H]2CC(=O)c3c(O)cc(O)cc3O2)cc1O [Hesperetin]	41.4	0.998	3030 ± 829	–
O=C1c2c(O)cc(O)cc2O[C@H](c2cc(O)c(O)c(O)c2)[C@H]1O [Dihydromyricetin]	105	0.911	7170 ± 418	–
O=c1cc(-c2ccccc2)oc2cc(O)cc(O)c12 [Chrysin]	16.3	0.964	> 593	–
O=c1c(-c2ccc(O)cc2)coc2cc(O)ccc12 [Daidzein]	11.6	1.101	852 ± 667	–
O=c1c(-c2ccc(O)cc2)coc2cc(O)cc(O)c12 [Genistein]	4.94	1.129	> 2960	–
COc1ccc(-c2coc3cc(O[C@@H]4O[C@H](CO)[C@@H](O)[C@H](O)[C@H]4O)ccc3c2=O)cc1 [Ononin]	10.9	1.086	> 1160	–
O=C1C[C@@H](c2ccc(O)cc2)Oc2cc(O)cc(O)c21 [Naringenin]	33.3	1.013	6032 ± 41	–
O=c1cc(-c2ccc(O)c(O)c2)oc2cc(O)cc(O)c12 [Luteolin]	0.156	1.435	99 ± 11	–
C[C@@H]1O[C@@H](OC[C@H]2O[C@@H](Oc3c(-c4ccc(O)c(O)c4)oc4cc(O)cc(O)c4c3=O)[C@H](O)[C@@H](O)[C@@H]2O)[C@H](O)[C@H](O)[C@H]1O [Rutin]	5.38	1.115	367 ± 182	–
C[C@@H]1O[C@@H](O[C@H]2C(=O)c3c(O)cc(O)cc3O[C@@H]2c2ccc(O)c(O)c2)[C@H](O)[C@H](O)[C@H]1O [Astilbin]	151	0.850	7316 ± 66	–
COc1ccc(-c2coc3cc(O)ccc3c2=O)cc1 [Formononetin]	83.2	0.926	> 1860	–
Oc1cc(O)c2c(c1)O[C@H](c1ccc(O)c(O)c1)[C@H](O)C2 [Epicatechin]	3160	0.734	> 20700	binding affinity with lipase (in words) [1]: very weak binding affinity
O=c1c(O)c(-c2ccccc2)oc2cc(O)cc(O)c12 [Galangin]	13.7	1.097	574 ± 132	inhibition on pancreatic lipase activity [4]: dose-dependent inhibition; anti-obesity effects ([5]; ref Kumar and Alagawadi, 2013): exhibited anti-obesity effects
O=c1c(-c2ccc(O)cc2)coc2c([C@@H]3O[C@H](CO)[C@@H](O)[C@H](O)[C@H]3O)c(O)ccc12 [Puerarin]	1.43	1.232	16800 ± 692	–
O=c1c(O)c(-c2ccc(O)c(O)c2)oc2cc(O)cc(O)c12 [Quercetin]	–	1.419	–	fat absorption in the gastrointestinal tract [5, 6]: significantly reduced fat absorption; fat excretion in feces [5, 6]: increased fat excretion in feces
O=c1cc(-c2ccccc2)oc2cc(O)c(O)c(O)c12 [Baicalein]	0.671	1.270	156 ± 22	–
O=c1c(O)c(-c2ccc(O)cc2)oc2cc(O)cc(O)c12 [Kaempferol]	4.06	1.163	> 983	–
